Measured values as given in the supplement of paper PMC10307832.

Tests used:
Test in all cases: relative viability (nuclei count vs DMSO), 5 days (fraction); higher = more cells survive
Daporinad + Phenformin = compound: O=C(/C=C/c1cccnc1)NCCCCC1CCN(C(=O)c2ccccc2)CC1 [Daporinad] + N=C(N)NC(=N)NCCc1ccccc1 [Phenformin] (partner 250 µM)
Method in brief: (§1)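 Lung cancer cell lines were seeded in 1536-well plates and dosed by pin tool the next day, with either a single drug or a fixed anchor-drug dose combined with five library-drug doses (not always all listed) spaced in √10 steps. Five days later, one step fixed the cells and stained their nuclei (final 0.05% Triton X-100, 1% formaldehyde, 1 ug/ml Hoechst), and nuclei were counted on 4× images. Relative viability is the nuclei count in treated wells divided by the count in vehicle wells, and each value is the median of duplicate plates.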

R406 + Palbociclib = compound: COc1cc(Nc2ncc(F)c(Nc3ccc4c(n3)NC(=O)C(C)(C)O4)n2)cc(OC)c1OC [R406] + CC(=O)c1c(C)c2cnc(Nc3ccc(N4CCNCC4)cn3)nc2n(C2CCCC2)c1=O [Palbociclib] (partner 0.5 µM)
Method in brief: as §1

Daporinad + Vorinostat = compound: O=C(/C=C/c1cccnc1)NCCCCC1CCN(C(=O)c2ccccc2)CC1 [Daporinad] + O=C(CCCCCCC(=O)Nc1ccccc1)NO [Vorinostat] (partner 1 µM)
Method in brief: as §1

Daporinad + Decitabine = compound: O=C(/C=C/c1cccnc1)NCCCCC1CCN(C(=O)c2ccccc2)CC1 [Daporinad] + Nc1ncn([C@H]2C[C@H](O)[C@@H](CO)O2)c(=O)n1 [Decitabine] (partner 2 µM)
Method in brief: as §1

Which relative viability (Daporinad + Phenformin; first compound 0.0005 µM) does the source give for UMC-11 here?
Its relative viability is 0.266.

What about the relative viability (Daporinad + Phenformin; first compound 0.001581 µM) of the same cell line?
The relative viability was 0.348.

What about the relative viability (Daporinad + Phenformin; first compound 0.005 µM) of the same cell line?
Its relative viability is 0.353.

What about the relative viability (Daporinad + Phenformin; first compound 0.01581 µM) of the same cell line?
The relative viability was 0.367.

And the relative viability (R406 + Palbociclib; first compound 0.08 µM)?
Its relative viability is 0.314.

And the relative viability (R406 + Palbociclib; first compound 0.253 µM)?
The relative viability was 0.339.

And the relative viability (R406 + Palbociclib; first compound 0.8 µM)?
Its relative viability is 0.35.

What about the relative viability (R406 + Palbociclib; first compound 2.53 µM) of the same cell line?
The relative viability was 0.312.

And the relative viability (R406 + Palbociclib; first compound 8 µM)?
Its relative viability is 0.239.

What about the relative viability (Daporinad + Vorinostat; first compound 0.0005 µM) of the same cell line?
Its relative viability is 0.319.

And the relative viability (Daporinad + Vorinostat; first compound 0.001581 µM)?
Its relative viability is 0.384.

And the relative viability (Daporinad + Vorinostat; first compound 0.005 µM)?
The relative viability was 0.426.

And the relative viability (Daporinad + Vorinostat; first compound 0.01581 µM)?
The relative viability was 0.413.

And the relative viability (Daporinad + Decitabine; first compound 0.0005 µM)?
Its relative viability is 0.558.

What about the relative viability (Daporinad + Decitabine; first compound 0.001581 µM) of the same cell line?
The relative viability was 0.813.

And the relative viability (Daporinad + Decitabine; first compound 0.005 µM)?
The relative viability was 0.625.

And the relative viability (Daporinad + Decitabine; first compound 0.01581 µM)?
The relative viability was 0.54.
